{
  "source": "BindingDB's records for doi:10.3109/14756360903179385",
  "about": "(University of Peshawar, 2010)",
  "data": [
    {"target": "Urease (Canavalia ensiformis, UniProt P07374)", "sequence (P07374 whole entry)": "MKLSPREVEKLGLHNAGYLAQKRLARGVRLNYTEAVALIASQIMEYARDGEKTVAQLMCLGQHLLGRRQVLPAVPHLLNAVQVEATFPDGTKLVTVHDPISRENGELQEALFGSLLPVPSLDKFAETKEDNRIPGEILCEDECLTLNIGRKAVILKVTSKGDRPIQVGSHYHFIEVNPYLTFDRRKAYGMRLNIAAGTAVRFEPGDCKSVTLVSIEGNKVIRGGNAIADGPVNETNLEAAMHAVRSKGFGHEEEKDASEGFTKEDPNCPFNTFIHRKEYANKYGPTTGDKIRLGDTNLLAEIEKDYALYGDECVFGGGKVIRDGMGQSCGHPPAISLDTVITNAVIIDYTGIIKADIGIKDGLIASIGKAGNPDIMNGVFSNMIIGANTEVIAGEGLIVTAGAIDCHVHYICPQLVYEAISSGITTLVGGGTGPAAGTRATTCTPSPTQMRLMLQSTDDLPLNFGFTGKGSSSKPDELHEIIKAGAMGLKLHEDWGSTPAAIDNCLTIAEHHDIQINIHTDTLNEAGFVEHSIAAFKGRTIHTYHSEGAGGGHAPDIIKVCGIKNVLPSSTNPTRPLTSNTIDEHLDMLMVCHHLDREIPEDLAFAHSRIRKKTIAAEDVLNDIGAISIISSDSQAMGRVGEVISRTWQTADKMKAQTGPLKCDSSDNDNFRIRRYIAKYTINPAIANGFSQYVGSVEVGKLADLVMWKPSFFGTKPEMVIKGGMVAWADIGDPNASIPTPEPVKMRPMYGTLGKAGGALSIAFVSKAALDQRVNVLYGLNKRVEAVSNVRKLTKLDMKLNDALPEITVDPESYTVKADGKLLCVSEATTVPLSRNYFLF", "experiment": "Urease Inhibition Assay", "settings": "pH 6.8; 30 °C", "procedure": "Reaction mixtures comprising 25 μL of enzyme (jack bean urease) solution and 55 μL of buffer containing 100 mM urea were incubated with 5 μL of test compound (0.5 mM) at 30°C for 15 min in 96-well plates. Urease activity was determined by measuring the ammonia production using the indophenol method, as described by Weatherburn11. Briefly, 45 μL of each phenol reagent (1% (w/v) phenol and 0.005% (w/v) sodium nitroprussside) and 70 μL of alkali reagent (0.5% (w/v) NaOH and 0.1% active chloride, NaOCl) were added to each well. The increasing absorbanceat 630 nm was measured after 50 min, using a microplate reader (Molecular Devices, Sunnyvale, CA, USA). All reactions were performed in triplicate in a final volume of 200 μL. The results (change in absorbance per min) were processed using SoftMax Pro software (Molecular Devices). The entire assay was performed at pH 6.8.", "units": {"IC50": "µM"}, "values": [
      {"molecule": "O=c1c2cc(O)ccc2oc2cc(O)cc(O)c12", "note": "[1,3,7-trihydroxy-9H-xanthen-9-one]", "IC50": 138},
      {"molecule": "CCCCCCCCCCCCCCCCCCCCCCCCOC(=O)C=Cc1ccc(O)c(O)c1", "note": "[Tetracosyl 3-(3,4-dihydroxyphenyl) acrylate (2)]", "IC50": 21},
      {"molecule": "O=c1c2cccc(O)c2oc2c(O)c(O)ccc12", "note": "[US9114126, MB5]", "IC50": 37.9}
    ]}
  ]
}
